Laboratory results: publication PMC5751115, “Screening In Vitro Targets Related to Diabetes in Herbal Extracts from Peru: Identification of Active Compounds in Hypericum laricifolium Juss. by Offline High-Performance Liquid Chromatography” (International Journal of Molecular Sciences, 2017)
One block for each compound: values may come before it.

How the values were obtained:
[1] = tested on: α-glucosidase; test: α-Glucosidase inhibitory assay; type: biochemical
Description: α-Glucosidase inhibitory activity was determined using a previously reported method with slight modifications. The initial concentration of the enzyme solution was 0.015 mg/mL in 0.1 M phosphate buffer (pH 6.9) and the initial concentration of the substrate solution was 1 mM in the same phosphate buffer. The enzyme solution was mixed in a clear 96-well microplate (flat bottom) and the reaction was initiated by the addition of the substrate to the solution. The plates were incubated at 37 °C for 10 min.

[2] = ABTS free radical scavenging assay; settings: for IC50 / Antioxidants ABTS IC50 (μM): Table 3, isolated compounds, NA is not active; for IC50: read-out: Antioxidants ABTS IC50
Description: The ABTS free radical scavenging activity was determined using ABTS radical cations (ABTS^+) with slight modifications [34]. Briefly, potassium persulfate (3.5 mM) and ABTS diammonium salt (2.0 mM) were mixed, diluted in distilled water, and subsequently allowed to stand in the dark at room temperature for 24 h before use, to allow free radical generation. To determine the scavenging activity, the absorbance was recorded at 750 nm using an EL-800 Universal microplate reader (BioTek Instrument Inc., Winooski, VT, USA) after incubating the sample solutions (10 µL, 1 mg/mL, 0.5 mg/mL in methanol) with ABTS solution (290 µL) for 10 min in a 96-well plate. Trolox was used as a positive control.

[3] = biological target: rat lens aldose reductase (RLAR) (Rattus norvegicus, UniProt P07943); test: Rat lens aldose reductase (RLAR) assay; type: biochemical; settings: for IC50 / AR IC50 (μM): Table 3, isolated compounds, means ± SD (n = 3), NA is not active; for IC50: read-out: AR IC50
Description: The rat lenses (RL) were prepared as follows: the RL were removed from the eyes from 10-week-old Sprague-Dawley rats (weight = 250–280 g) and frozen until required. The rats were housed in a standardized laboratory environment with a 12 h light/12 h dark cycle at constant room temperature (22 ± 1 °C) and humidity (6 ± 5%) before experimentation. All animals had free access to water and food.
The AR inhibitory activities were evaluated using RLAR. Prior to analysis, the lenses were homogenized in 0.1 M phosphate buffer saline (pH 6.2) and subsequently centrifuged at 10,000× g for 30 min at 4 °C. The rat lens aldose reductase (RLAR)-containing supernatant was then collected. A substrate comprising 531 μL 0.1 M potassium buffer (pH 7.0), 90 μL NADPH solution (1.6 mM in potassium buffer), 90 μL RLAR homogenate (6.5 U/mg), 90 μL ammonium sulfate solution (4 M in potassium buffer), and 90 μL DL-glyceraldehyde (25 mM in potassium buffer) was placed into a 1.0-mL cuvette and mixed with 9 μL sample (1 mg/mL dissolved in DMSO). RLAR activity was assessed spectrophotometrically by measuring the decrease in NADPH absorption at 340 nm over a 4 min period.

[4] = DPPH free radical scavenging assay; settings: for IC50 / Antioxidants DPPH IC50 (μM): Table 3, isolated compounds, NA is not active; for IC50: read-out: Antioxidants DPPH IC50
Description: The DPPH free radical scavenging activity was determined as previously described with slight modifications. […] After 15 min incubation in the darkroom, the absorbance change at 570 nm was measured on a microplate reader (EL800 Universal Microplate reader, BioTek Instruments, Winooski, VT, USA). L-Ascorbic acid was used as positive control.

[5] = biological target: T1, Human recombinant AR (HRAR) (Homo sapiens, UniProt P15121); test: HRAR ultrafiltration-HPLC assay; type: binding; settings: peak in HL 70% MeOH extract 0.1 mg/mL; HRAR 3.9 μM
T1 construct: purchased Wako Pure Chemical Industries Co. (Osaka, Japan)
Description: The AR Inhibitors (ARIs) present in HL were profiled using a newly developed AR ultrafiltration assay. Specifically, the HL sample (final concentration = 0.1 mg/mL) was incubated with 0.6 M ammonium sulfate and 3.9 μM HRAR (Human recombinant AR) in a total volume of 300 μL at 37 °C for 30 min. The incubated mixture was then filtered by centrifugation at 5167× g for 30 min at room temperature using a Microcon YM-10 centrifugal filter unit. The filtrate was subsequently analyzed by HPLC (Section 3.9). The sample incubated without HRAR was used as control.

[6] = Offline ABTS-HPLC analysis; settings: peak area reduction in HL 70% MeOH extract after ABTS
Description: Offline ABTS-HPLC was investigated by modifying a previously reported protocol. Briefly, 10 μL of 70% methanol extract from HL (20 mg/mL) was mixed with 140 μL ABTS solution that was prepared one day in advance. The mixture was then incubated at room temperature for 10 min and subsequently filtered through a 0.45 μm filter. The filtrate was analyzed by HPLC (Section 3.9). The methanol extract of HL (20 mg/mL in MeOH was used as control. The detector monitored the eluent at a wavelength of 300 nm and the % QR was calculated as described in Section 3.11.

[7] = Offline DPPH-HPLC analysis; settings: peak area reduction in HL 70% MeOH extract after DPPH
Description: The DPPH radical assay was modified by an offline DPPH-HPLC assay. […] After incubation (15 min) in the dark room, the mixture was filtered through a 0.45-μm membrane and subsequently analyzed by HPLC (Section 3.9). The sample incubated with methanol was used as control. The decreases in peak area were expressed as the % quantitative reduction (% QR), calculated from the equation: % QR = (A − B)/A × 100%, where A and B are the HPLC peak areas of the compound incubated without and with the DPPH methanol solution, respectively.

[8] = tested on: α-glucosidase; test: α-Glucosidase ultrafiltration-HPLC assay; type: binding; settings: peak in HL 70% MeOH extract 0.1 mg/mL; α-glucosidase 3.9 μM
Description: The α-glucosidase present in the HL was profiled using a newly developed α-glucosidase ultrafiltration assay. Specifically, the HL 30 μL sample (final concentration = 0.1 mg/mL) was incubated with α-glucosidase (3.9 μM) in PBS (300 μL, pH 7.0) at 37 °C for 30 min. The incubated mixture was then filtered by centrifugation at 5167× g for 30 min at room temperature using a Microcon YM-10 centrifugal filter unit (Millipore, Bedford, MA, USA). The filtrate was subsequently analyzed by HPLC on a Dionex system (Dionex, Sunnyvale, CA, USA) consisting of a P850 pump, an ASI-100 automated sample injector, a Synergi Hydro-RP 80A column (150 mm × 4.6 mm, 4 μm; Phenomenex, Torrance, CA, USA) maintained at 30 °C, and a UVD170S detector. The injection volume was 10 μL and the flow rate of the mobile phase was 0.7 mL/min. The mobile phase compositions were as follows: 0.1% trifluoroacetic acid (A-line) and methanol (B-line). The gradient elution system was modified as follows: 0–35 min, starting with 5% B-line, programmed to reach 40% B-line at 15 min using a linear gradient, followed by 100% B-line from 15–35 min. The detector monitored the eluent at a wavelength of 254 nm. The sample incubated without α-glucosidase was used as control.

[9] = means ± SD (n = 3), listed as Quercetin (7)

SMILES: C[C@H]1O[C@H](O[C@H]2[C@H](O)[C@@H](O)[C@@H](O[C@H]3[C@H](O)[C@@H](O)C(O)O[C@@H]3CO)O[C@@H]2CO)[C@H](O)[C@@H](O)[C@@H]1N[C@H]1C=C(CO)[C@@H](O)[C@H](O)[C@H]1O (some centres unmarked) [Acarbose, acarbose, reference compound]
α-Glucosidase Inhibition (%) ([1]; Table 2, 500 μg/mL): 55.82 ± 2.3%

SMILES: O=C(O)c1ccc(O)c(O)c1 [Compound 1, protocatechuic acid]
IC50 ([2]; means ± SD (n = 3)): 9.7 ± 0.9 µM | IC50 [3]: 16.9 ± 1.9 µM | IC50 ([4]; means ± SD (n = 3)): 263.4 ± 0.2 µM

Antioxidants ABTS IC50 (μM) ([2]; means ± SD (n = 3)): inactive | AR IC50 (μM) [3]: inactive | Antioxidants DPPH IC50 (μM) ([4]; means ± SD (n = 3)): inactive
SMILES: O=C(O)c1ccc(O)cc1 [Compound 2, p-hydroxybenzoic acid]

IC50 [3]: 0.23 µM | total binding degree (TBD), HRAR ultrafiltration-HPLC [5]: ~ 20%
SMILES: O=C(/C=C/c1ccc(O)c(O)c1)O[C@@H]1C[C@](O)(C(=O)O)C[C@@H](O)[C@H]1O [Compound 3, chlorogenic acid]

Antioxidants ABTS IC50 (μM) ([2]; means ± SD (n = 3)): inactive | AR IC50 (μM) [3]: inactive | Antioxidants DPPH IC50 (μM) ([4]; means ± SD (n = 3)): inactive
SMILES: COc1cc(C(=O)O)ccc1O [Compound 4, vanillic acid]

SMILES: O=C(O)/C=C/c1ccc(O)c(O)c1 [Compound 5, caffeic acid]
IC50 ([2]; means ± SD (n = 3)): 7.2 ± 1.1 µM | IC50 [3]: 28.3 ± 0.9 µM | IC50 ([4]; means ± SD (n = 3)): 47.2 ± 0.1 µM | quantitative reduction percentage (QR), offline ABTS-HPLC [6]: 76%

IC50 ([2]; means ± SD (n = 3)): 11 ± 0.2 µM | IC50 [3]: 6 ± 1.1 µM | IC50 ([4]; means ± SD (n = 3)): 58.8 ± 2.1 µM | total binding degree (TBD), HRAR ultrafiltration-HPLC [5]: 30%
SMILES: O=C(O)[C@H]1O[C@@H](Oc2c(-c3ccc(O)cc3)oc3cc(O)cc(O)c3c2=O)[C@H](O)[C@@H](O)[C@@H]1O [Compound 6, kaempferol 3-O-glucuronide]

SMILES: O=c1c(O)c(-c2ccc(O)c(O)c2)oc2cc(O)cc(O)c12 [Compound 7, quercetin]
IC50 [2, 9]: 0.33 ± 0.6 µM | % quantitative reduction (QR), offline DPPH-HPLC [7]: 42.8% | total binding degree (TBD), α-glucosidase ultrafiltration-HPLC [8]: 61.57% | IC50 [4, 9]: 0.33 µM | quantitative reduction percentage (QR), offline ABTS-HPLC [6]: > 80% | α-glucosidase percentage inhibition ([1]; isolated compound, Figure 2, 50 μg/mL): 91%

IC50 ([2]; means ± SD (n = 3)): 191.8 ± 1.1 µM | IC50 [3]: 9.7 ± 0.5 µM | IC50 ([4]; means ± SD (n = 3)): 326 ± 3.3 µM | total binding degree (TBD), HRAR ultrafiltration-HPLC [5]: < 20%
SMILES: O=c1c(O)c(-c2ccc(O)cc2)oc2cc(O)cc(O)c12 [Compound 8, kaempferol]
% quantitative reduction (QR), offline DPPH-HPLC [7]: 51% | quantitative reduction percentage (QR), offline ABTS-HPLC [6]: 54%

DPPH IC50 ([4]; Table 2, means ± SD (n = 3)): 17.6 ± 0.1 µg/mL
SMILES: O=C1O[C@H]([C@@H](O)CO)C(O)=C1O [L-Ascorbic, L-ascorbic acid, reference compound]
DPPH Inhibition (%) ([4]; Table 2, L-ascorbic acid at 71 μg/mL): 99.1 ± 0%

SMILES: O=c1c(O)c(-c2ccc(O)c(O)c2)oc2cc(O)cc(O)c12 [Quercetin, quercetin, reference compound]
inhibition at 10 µg/mL ([3]; read-out: AR Inhibition (%)): 83.7 ± 2.6%

ABTS IC50 ([2]; Table 2, means ± SD (n = 3)): 4.6 ± 0.1 µg/mL | IC50 ([2]; means ± SD (n = 3)): 18.8 ± 0.5 µM
SMILES: Cc1c(C)c2c(c(C)c1O)CCC(C)(C(=O)O)O2 (centres unmarked) [Trolox, 6-hydroxy-2,5,7,8-tetramethylchroman-2-carboxylic acid, reference compound]
ABTS Inhibition (%) ([2]; Table 2, trolox at 17 μg/mL): 100 ± 0.1%
